Assays:
Human alphaherpesvirus 1 = assay: Antiviral activity against HSV 1 infected in African green monkey Vero cells assessed as reduction in plaque formation incubated for 36 hrs by crystal violet staining based assay; assay type: functional, organism-based; conditions: Human alphaherpesvirus 1, Vero
[1] = Inhibition of Influenza A virus RNA-dependent RNA polymerase
[2] = molecular target: Dihydroorotate dehydrogenase (quinone), mitochondrial (Homo sapiens, UniProt Q02127); assay: Inhibition of DHOH (unknown origin)
Chain of Dihydroorotate dehydrogenase (quinone), mitochondrial (Q02127 whole entry): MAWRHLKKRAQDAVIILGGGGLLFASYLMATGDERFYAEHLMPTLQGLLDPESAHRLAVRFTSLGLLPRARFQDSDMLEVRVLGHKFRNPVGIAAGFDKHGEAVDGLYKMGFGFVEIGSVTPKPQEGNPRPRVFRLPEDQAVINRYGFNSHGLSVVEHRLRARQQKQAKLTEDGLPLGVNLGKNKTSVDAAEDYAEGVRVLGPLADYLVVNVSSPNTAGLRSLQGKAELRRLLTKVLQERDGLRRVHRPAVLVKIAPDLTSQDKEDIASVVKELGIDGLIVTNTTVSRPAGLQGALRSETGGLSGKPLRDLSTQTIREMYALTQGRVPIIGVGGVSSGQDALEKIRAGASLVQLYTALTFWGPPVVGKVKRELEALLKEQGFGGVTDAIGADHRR

clinical = conditions: human, in vivo, iv, 5 mg/kg
Description: Elimination half life in human at 5 mg/kg, iv

Enterovirus = assay: Antiviral activity against Enterovirus infected in human H1-HeLa cells incubated for 3 days by crystal violet staining based plaque counting analysis; assay type: functional, organism-based; conditions: 72 h
rhinovirus B14 = assay: Antiviral activity against human Rhinovirus 14 infected in H1-HeLa cells incubated for 3 days by crystal-violet staining based analysis; assay type: functional, organism-based; conditions: Rhinovirus B, 72 h
Influenza A virus = assay: Anti-influenza activity against Influenza A virus infected in MDCK cells assessed as reduction in virus-induced cytopathic effect incubated for 48 hrs by CCK-8 assay; assay type: functional, organism-based
[3] = Inhibition of Hepatitis C virus NS5B RNA dependent RNA polymerase; set-up: species or system Hepacivirus hominis
[4] = Elimination half life in human; assay type: ADME; conditions: read-out: beta t1/2 (converted)

C=CCNC1=C2C[C@@H](C)C[C@H](OC)[C@H](O)[C@@H](C)/C=C(\C)[C@H](OC(N)=O)[C@@H](OC)/C=C/C=C(\C)C(=O)NC(=CC1=O)C2=O
IC50 (Human alphaherpesvirus 1): 0.0078 µM

NC(=O)c1nc(F)cn([C@@H]2O[C@H](COP(=O)(O)OP(=O)(O)OP(=O)(O)O)[C@@H](O)[C@H]2O)c1=O
IC50 [1]: 0.341 µM

CN(/N=C/c1ccccc1C(=O)O)c1nc(-c2ccccc2Cl)cs1
IC50 [2]: 0.0075 µM

CCC(CC)COC(=O)[C@H](C)N[P@](=O)(OC[C@H]1O[C@@](C#N)(c2ccc3c(N)ncnn23)[C@H](O)[C@@H]1O)Oc1ccccc1
half-life (clinical): 0.48 h

COc1ccc(OCCCCCCn2ccnc2)c(Cl)c1
EC50 (Enterovirus): 10 µM | EC50 (rhinovirus B14): 10 µM

O=[N+]([O-])c1ccc(CNc2ccc3ncsc3c2)cc1
IC50 (Influenza A virus): 3.36 µM

C[C@@]1(O)[C@H](O)[C@@H](CO)O[C@H]1n1ccc2c(N)ncnc21 [BETA-2'-C-METHYL-7-DEAZA-ADENOSINE]
IC50 [3]: 5 µM

N#C[C@@]1(c2ccc3c(N)ncnn23)O[C@H](COP(=O)(O)OP(=O)(O)OP(=O)(O)O)[C@@H](O)[C@H]1O [RDV-TP]
half-life [4]: 26.6 h

— ChEMBL document CHEMBL5550131, “Medicinal chemistry strategies toward broad-spectrum antiviral agents to prevent next pandemics” (Eur J Med Chem, 2024)
